From patent US11166899B2, “Composition for external application containing a ceramide, a derivative thereof and an extract of Hibisci cortex” (AMOREPACIFIC CORPORATION, priority 2017, dated 2021)

molecular target: T1, PPARα (Homo sapiens, UniProt Q07869); assay: PPARα activation of single ceramide derivatives, PPRE-luciferase reporter in transfected HaCaT cells (Test Example 1); assay type: cell-based; details: 10 ppm, 24 hours, HaCaT transfected with PPRE reporter and PPARα plasmids; DMSO control = 100
T1 construct: expressed in transfected cells; host or cells: HaCaT (human keratinocyte cell line), transiently transfected
T1 sequence (Q07869 1-468): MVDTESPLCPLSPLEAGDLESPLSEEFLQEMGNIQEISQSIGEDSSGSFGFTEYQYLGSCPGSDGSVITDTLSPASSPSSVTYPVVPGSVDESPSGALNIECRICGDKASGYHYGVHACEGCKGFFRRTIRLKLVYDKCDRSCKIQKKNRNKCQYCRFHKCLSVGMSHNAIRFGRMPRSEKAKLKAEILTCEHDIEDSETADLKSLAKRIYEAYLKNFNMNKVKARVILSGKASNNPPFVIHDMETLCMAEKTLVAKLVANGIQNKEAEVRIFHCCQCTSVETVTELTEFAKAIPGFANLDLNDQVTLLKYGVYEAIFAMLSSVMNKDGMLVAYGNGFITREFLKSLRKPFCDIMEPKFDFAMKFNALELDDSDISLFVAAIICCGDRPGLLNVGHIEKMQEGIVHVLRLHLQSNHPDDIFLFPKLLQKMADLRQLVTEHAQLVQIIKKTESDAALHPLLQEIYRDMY
Source text: HaCaT, which is a human keratinocyte cell line, was subcultured in DMEM medium containing 10% fetal bovine serum, which is a phenol red-free medium, in order to eliminate the effect caused by the phenol red's estrogen. The following plasmids were used: a plasmid having PPARα, PPARβ/δ and PPARγ genes downstream of a universal promoter which is expressed in general culture conditions; a plasmid having a PPARs response element (“PPRE”) as a promoter, which is activated by binding with ligand-bound PPARs, and a firefly luciferase gene serving as a reporter downstream of the promoter; and a reference plasmid having a β-galactosidase gene bound to a universal promoter.
HaCaT cells were seeded into a 24-well plate at a density of 5×10^4 cells/well, cultured for 24 hours, and then transiently transfected with the plasmid genes. After 24 hours of culture, the cells were washed with phosphate buffered saline (PBS), and then treated with the compounds prepared in Reference Examples 2-1 to 2-4, and Reference Examples 3-11 to 3-15 at a concentration of 10 ppm. As a positive control group, the cells were treated with a previously-known PPARs ligand (PPARα ligand Wy-14643) at a concentration of 10 μM. As a negative control group, a group treated with DMSO used to dissolve the samples was used. After 24 hours of culture, the cells were washed with PBS, harvested, and measured for luciferase activity.
Results obtained by transfecting the HaCaT cell line with the PPRE promoter reporter plasmid and the PPARα expression plasmid, followed by treating the transfected cells with drugs, and measuring the luciferase activity of the cells

| Relative to Control Group (%) (luciferase activity) | Compound |
| --- | --- |
| 255% | CCCCCCCC/C=C\CCCCCCCC(=O)N(CCO)CC(O)CN(CCO)C(=O)CCCCCCC/C=C\CCCCCCCC [Reference Example 2-3, 1,3-bis(N-(2-hydroxyethyl)-oleoylamino)-2-hydroxypropane] |
| 278% | CCCCCCCC/C=C\CCCCCCCCN(CC(C)OS(=O)(=O)[O-])C(=O)CCCCCCCCCCCCCCC.[Na+] (stereo not shown) [Reference Example 3-14, (N-oleyl-N-palmitoyl)-1-aminopropane-2-sodium sulfate] |
| 272% | CCCCCCCCCCCCCCCCN(CC(C)OP(=O)([O-])[O-])C(=O)CCCCCCCCCCCCCCC.[Na+].[Na+] (stereo not shown) [Reference Example 3-11, (N-hexadecyl-N-palmitoyl)-1-aminopropane-2-sodium phosphate] |
| 259% | CCCCCCCCCCCCCCCCN(CCOCCOP(=O)([O-])O)C(=O)CCCCCCCCCCCCCCC.[Na+] [Reference Example 3-13, (N-Hexadecyl-N-Palmitoyl)-1-Amino-2-Ethoxyethane-2-Sodium Phosphate] |
| 260% | CCCCCCCCCCCCCCCC(=O)N(CCO)CC(O)CNCCO (stereo not shown) [Reference Example 2-4, N,N′-bis(2-hydroxyethyl)-N-palmitoyl-N′-1,3-diamino-2-hydroxypropane] |
| 269% | CCCCCCCC/C=C\CCCCCCCCN(CC(C)(C)OS(=O)(=O)[O-])C(=O)CCCCCCCCCCCCCCC.[Na+] [Reference Example 3-15, (N-Oleyl-N-Palmitoyl)-1-Amino-2-Methylpropane-2-Sodium Sulfate] |
| 263% | CCCCCCCCCCCCCCCC(=O)N(CCO)CC(O)CN(CCO)C(=O)CCCCCCCCCCCCCCC [Reference Example 2-1, 1,3-bis(N-(2-hydroxyethyl)-palmitoylamino)-2-hydroxypropane] |
| 270% | CCCCCCCCCCCCCCCCN(CC(C)(C)OP(=O)([O-])[O-])C(=O)CCCCCCCCCCCCCCC.[Na+].[Na+] [Reference Example 3-12, (N-Hexadecyl-N-Palmitoyl)-1-Amino-2-Methylpropane-2-Sodium Phosphate] |
| 270% | CCCCCCCCCCCC(=O)N(CCO)CC(O)CN(CCO)C(=O)CCCCCCCCCCC [Reference Example 2-2, 1,3-Bis(N-(2-Hydroxyethyl)-Lauroylamino)-2-Hydroxypropane] |

same assay, conditions: positive control, 10 μM, 24 hours, HaCaT; DMSO control = 100

| Relative to Control Group (%) (luciferase activity) | Compound |
| --- | --- |
| 291% | Cc1cccc(Nc2cc(Cl)nc(SCC(=O)O)n2)c1C [Wy-14643, reference compound] |
